The structures appear in SMILES notation.

This experiment deals with T1, ATM (Homo sapiens, UniProt Q13315).
T1 construct: detecting phosphorylation of Chk2 in a human non-small cell lung cancer cell line NCI-H460 (ATCC company); host or cells: NCI-H460 human non-small cell lung cancer cells
T1 sequence (Q13315 whole entry): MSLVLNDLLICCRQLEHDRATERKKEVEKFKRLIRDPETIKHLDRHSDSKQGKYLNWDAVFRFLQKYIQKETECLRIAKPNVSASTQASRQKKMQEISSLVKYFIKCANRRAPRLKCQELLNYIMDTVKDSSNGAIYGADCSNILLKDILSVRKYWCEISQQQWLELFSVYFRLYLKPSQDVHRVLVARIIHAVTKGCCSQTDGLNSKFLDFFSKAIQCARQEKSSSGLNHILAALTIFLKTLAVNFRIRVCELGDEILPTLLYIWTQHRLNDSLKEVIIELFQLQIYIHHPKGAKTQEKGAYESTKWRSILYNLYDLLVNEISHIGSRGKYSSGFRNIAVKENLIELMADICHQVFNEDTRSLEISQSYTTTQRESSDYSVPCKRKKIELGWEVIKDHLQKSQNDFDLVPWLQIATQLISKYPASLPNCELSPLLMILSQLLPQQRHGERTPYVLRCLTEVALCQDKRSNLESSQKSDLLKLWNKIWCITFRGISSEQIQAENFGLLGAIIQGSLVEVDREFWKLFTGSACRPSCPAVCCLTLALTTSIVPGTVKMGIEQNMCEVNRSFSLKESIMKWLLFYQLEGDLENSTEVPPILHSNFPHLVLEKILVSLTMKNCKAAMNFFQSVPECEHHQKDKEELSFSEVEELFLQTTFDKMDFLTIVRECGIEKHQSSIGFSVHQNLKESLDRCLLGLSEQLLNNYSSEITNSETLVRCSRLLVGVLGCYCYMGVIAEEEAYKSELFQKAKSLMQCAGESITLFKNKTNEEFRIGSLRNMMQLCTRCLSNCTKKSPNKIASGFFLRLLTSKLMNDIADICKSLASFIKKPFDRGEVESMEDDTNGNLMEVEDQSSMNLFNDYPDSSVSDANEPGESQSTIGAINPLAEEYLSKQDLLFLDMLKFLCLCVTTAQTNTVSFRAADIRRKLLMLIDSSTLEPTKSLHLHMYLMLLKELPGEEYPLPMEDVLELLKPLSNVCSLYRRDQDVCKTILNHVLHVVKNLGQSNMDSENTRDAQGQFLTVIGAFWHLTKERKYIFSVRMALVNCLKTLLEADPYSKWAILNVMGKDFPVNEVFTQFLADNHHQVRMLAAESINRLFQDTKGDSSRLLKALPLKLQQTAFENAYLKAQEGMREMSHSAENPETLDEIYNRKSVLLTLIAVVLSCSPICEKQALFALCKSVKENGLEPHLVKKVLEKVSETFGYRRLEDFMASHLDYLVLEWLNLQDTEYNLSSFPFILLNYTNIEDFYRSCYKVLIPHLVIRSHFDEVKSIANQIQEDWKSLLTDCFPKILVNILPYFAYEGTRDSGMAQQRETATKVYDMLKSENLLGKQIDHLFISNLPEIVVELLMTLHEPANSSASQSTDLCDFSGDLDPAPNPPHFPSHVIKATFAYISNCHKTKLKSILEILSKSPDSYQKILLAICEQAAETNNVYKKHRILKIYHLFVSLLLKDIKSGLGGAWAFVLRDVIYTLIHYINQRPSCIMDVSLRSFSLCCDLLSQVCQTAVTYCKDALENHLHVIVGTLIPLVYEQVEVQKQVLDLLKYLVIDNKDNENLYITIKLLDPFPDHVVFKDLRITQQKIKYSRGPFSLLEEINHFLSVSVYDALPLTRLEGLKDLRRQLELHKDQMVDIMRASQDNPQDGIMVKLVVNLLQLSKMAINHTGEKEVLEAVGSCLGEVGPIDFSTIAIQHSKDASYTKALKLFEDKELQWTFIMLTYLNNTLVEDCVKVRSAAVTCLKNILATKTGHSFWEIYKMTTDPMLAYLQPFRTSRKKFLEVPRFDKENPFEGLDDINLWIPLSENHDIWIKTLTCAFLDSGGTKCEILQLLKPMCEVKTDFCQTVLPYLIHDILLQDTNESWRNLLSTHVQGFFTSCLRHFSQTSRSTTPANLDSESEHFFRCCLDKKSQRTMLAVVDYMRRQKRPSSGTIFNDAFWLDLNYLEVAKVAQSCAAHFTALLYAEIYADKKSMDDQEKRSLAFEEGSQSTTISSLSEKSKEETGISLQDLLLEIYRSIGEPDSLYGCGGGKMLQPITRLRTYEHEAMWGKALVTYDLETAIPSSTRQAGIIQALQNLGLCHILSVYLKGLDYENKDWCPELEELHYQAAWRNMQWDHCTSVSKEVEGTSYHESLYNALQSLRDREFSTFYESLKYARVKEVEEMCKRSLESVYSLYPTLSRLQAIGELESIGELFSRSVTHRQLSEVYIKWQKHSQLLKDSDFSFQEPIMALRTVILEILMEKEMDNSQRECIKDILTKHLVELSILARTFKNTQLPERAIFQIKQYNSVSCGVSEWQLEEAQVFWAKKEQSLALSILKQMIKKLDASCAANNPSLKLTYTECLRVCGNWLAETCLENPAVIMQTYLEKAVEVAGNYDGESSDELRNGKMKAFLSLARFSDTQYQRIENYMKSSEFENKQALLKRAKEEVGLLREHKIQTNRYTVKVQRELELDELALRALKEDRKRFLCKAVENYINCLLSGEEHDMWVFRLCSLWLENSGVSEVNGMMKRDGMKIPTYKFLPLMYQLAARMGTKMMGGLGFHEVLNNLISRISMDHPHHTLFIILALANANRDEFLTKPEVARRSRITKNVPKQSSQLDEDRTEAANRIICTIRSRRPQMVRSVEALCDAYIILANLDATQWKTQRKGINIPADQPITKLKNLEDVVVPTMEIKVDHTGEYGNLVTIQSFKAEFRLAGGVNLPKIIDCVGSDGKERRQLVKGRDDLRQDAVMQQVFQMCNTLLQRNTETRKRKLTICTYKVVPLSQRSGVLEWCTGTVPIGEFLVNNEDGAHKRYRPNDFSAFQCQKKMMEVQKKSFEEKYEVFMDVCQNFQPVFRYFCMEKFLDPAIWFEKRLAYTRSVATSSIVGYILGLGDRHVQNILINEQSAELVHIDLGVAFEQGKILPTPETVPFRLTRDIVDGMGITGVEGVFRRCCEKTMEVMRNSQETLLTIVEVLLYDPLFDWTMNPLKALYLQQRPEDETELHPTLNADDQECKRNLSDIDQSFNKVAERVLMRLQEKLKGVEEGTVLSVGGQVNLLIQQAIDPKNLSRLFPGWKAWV
Briefly: ATM inhibition test (phosphorylation of Chk2 generated by ionizing radiation, AlphaScreen SureFire). Format: cell-based. Conditions: phosphorylated Chk2 in NCI-H460 cells, ionizing radiation 8Gy, 1 hour after test compound treatment; read-out: ATM inhibitory activity. In outline: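 NCI-H460 cells, compound 1 h pre-treatment, 8Gy IR, further 1 h at 37° C in 5% CO2. Read-out: phospho-Chk2 via AlphaScreen SureFire. % inhibition relative to IR-induced signal window (irradiated vs non-irradiated drug-free wells).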
As to `O=c1cc(N2CCOCC2)cc(-c2cccc3c2Oc2ccc(NC4CCN(Cc5ccc(C(F)(F)F)nc5)CC4)cc2C3)[nH]1` [Example 2-28-15, 4-Morpholino-6-(7-((1-((6-(trifluoromethyl)pyridin-3-yl)methyl)piperidin-4-yl)amino)-9H-xanthen-4-yl) pyridin-2(1H)-one], the IC50 is 500 to 2000 nM.

With `O=c1cc(N2CCOCC2)cc(-c2cccc3c2Oc2ccc(NCc4ccc(OC5CCOCC5)nc4)cc2C3)[nH]1` [Example 2-2-4, 4-Morpholino-6-(7-(((6-((tetrahydro-2H-pyran-4-yl)oxy)pyridin-3-yl)methyl)amino)-9H-xanthen-4-yl)pyridin-2 (1H)-one], the IC50 was in the range of 500 to 2000 nM.

With `Cc1ccc(C(Nc2ccc3c(c2)Sc2cccc(-c4cc(N5CCOCC5)cc(=O)[nH]4)c2S3)[C@H]2CCN(C)C2)nc1` (single isomer, unassigned) [Example 1-56-15], the IC50 was below 100 nM.

As to `O=c1cc(N2CCOCC2)cc(-c2cccc3c2Sc2ccc(NCCN4CC(F)(F)C4)cc2S3)[nH]1` [Example 1-10-3, 6-(7-((2-(3,3-Difluoroazetidin-1-yl)ethyl)amino)thianthren-1-yl)-4-morpholinopyridin-2(1H)-one], the IC50 was in the range of 100 to 500 nM.

Consider `CC(Nc1ccc2c(c1)Sc1cccc(-c3cc(N4CCOCC4)cc(=O)[nH]3)c1S2)C1CC1` (centres unmarked) [Example 1-12-43, 6-(7-((1-Cyclopropylethyl)araino)thianthren-1-yl)-4-morpholino pyridin-2(1H)-onc], for which the IC50 lay within 500 to 2000 nM.

Take `CC(Nc1ccc2c(c1)Cc1cccc(-c3cc(N4CCOCC4)cc(=O)[nH]3)c1O2)c1cnc(N(C)C)cn1` (centres unmarked) [Example 2-14-53, 6-(7-((1-(5-(Dimethylamino)pyrazin-2-yl)ethyl)amino)-9H-xanthen-4-yl)-4-morpholino pyridin-2(1H)-one]: the IC50 was 100 to 500 nM.

On to `CCN1CCN(CC(C)Nc2ccc3c(c2)Sc2cccc(-c4cc(N5CCOCC5)cc(=O)[nH]4)c2S3)CC1` (centres unmarked) [Example 1-13-13, 6-(7-((1-(4-Ethylpiperazin-1-yl)propan-2-yl)amino)thianthren-1-yl)-4-morpholino pyridin-2(1H)-one], for which the IC50 lay within 100 to 500 nM.

In the case of `Cc1ncsc1CNc1ccc2c(c1)Cc1cccc(-c3cc(N4CCOCC4)cc(=O)[nH]3)c1O2` [Example 2-13-2, 6-(7-(((4-Methylthiazol-5-yl)methyl)amino)-9H-xanthen-4-yl)-4-morpholino pyridin-2(1H)-one], the IC50 is 100 to 500 nM.

Regarding `CNCC(Nc1ccc2c(c1)Sc1cccc(-c3cc(N4CCOCC4)cc(=O)[nH]3)c1S2)c1nccc(C)n1` (centres unmarked) [Example 1-16-5, 6-(7-((2-(Methylamino)-1-(4-methylpyrimidin-2-yl)ethyl)amino)thianthren-1-yl)-4-morpholinopyridin-2(1H)-one], the IC50 was in the range of 500 to 2000 nM.

For the compound `O=c1cc(N2CCOCC2)cc(-c2cccc3c2Oc2ccc(NCc4cncc(-c5cccnc5)c4)cc2C3)[nH]1` [Example 2-2-57, 6-(7-(([3,3′-Bipyridin]-5-ylmethyl)amino)-9H-xanthen-4-yl)-4-morpholino pyridin-2 (1H)-one], the IC50 lay within 100 to 500 nM.

For the compound `CN1CCC(Nc2ccc3c(c2)Sc2cccc(-c4cc(N5CCOCC5)cc(=O)[nH]4)c2S3)C1` (centres unmarked) [Example 1-31-1, 6-(7-((1-Methylpyrrolidin-3-yl)amino)thianthren-1-yl)-4-morpholinopyridin-2(1H)-one], the IC50 lay in the range of 100 to 500 nM.

For `O=c1cc(N2CCOCC2)cc(-c2cccc3c2Sc2ccc(OCCN4CCOCC4)cc2S3)[nH]1` [Example 1-47, 4-Morpholino-6-(7-(2-morpholinoethoxy)thianthren-1-yl)pyridin-2(1H)-one], the IC50 fell in the range of 100 to 500 nM.

With `O=c1cc(N2CCOCC2)cc(-c2cccc3c2Oc2ccc(NCc4ccnc(Cl)c4F)cc2C3)[nH]1` [Example 2-2-19, 6-(7-(((2-Chloro-3-fluoropyridin-4-yl)methyl)amino)-9H-xanthen-4-yl)-4-morpholino pyridin-2(1H)-one], the IC50 lay within 100 to 500 nM.

Take `O=C(CN1CCCOCC1)Nc1ccc2c(c1)Sc1cccc(-c3cc(N4CCOCC4)cc(=O)[nH]3)c1S2` [Example 1-7-3, N-(6-(4-morpholino-6-oxo-1,6-dihydropyridin-2-yl)thianthren-2-yl)-2-(1,4-oxazepan-4-yl)acetamide]: the IC50 is 500 to 2000 nM.

As to `CC(Nc1ccc2c(c1)Cc1cccc(-c3cc(N4CCOCC4)cc(=O)[nH]3)c1O2)c1ncc(CO)cn1` (centres unmarked) [Example 2-14-66, 6-(7-((1-(5-(Hydroxymethyl)pyrimidin-2-yl)ethyl)amino)-9H-xanthen-4-yl)-4-morpholino pyridin-2(1H)-one], the IC50 lay in the range of 500 to 2000 nM.

In the case of `O=c1cc(N2CCOCC2)cc(-c2cccc3c2Sc2ccc(NCc4ccncn4)cc2S3)[nH]1` [Example 1-12-36, 4-Morpholino-6-(7-((pyrimidin-4-ylmethyl)amino)thianthren-1-yl) pyridin-2(1H)-one], the IC50 was in the range of 100 to 500 nM.

On to `O=c1cc(N2CCOCC2)cc(-c2cccc3c2Oc2ccc(NC4CCN(CC5CCCCC5)CC4)cc2C3)[nH]1` [Example 2-28-35, 6-(7-((1-(Cyclohexylmethyl)piperidin-4-yl)amino)-9H-xanthen-4-yl)-4-morpholino pyridin-2(1H)-one], for which the IC50 lay in the range of 100 to 500 nM.

As for `O=c1cc(N2CCOCC2)cc(-c2cccc3c2Oc2ccc(Nc4cccnc4)cc2C3)[nH]1` [Example 2-61, 4-Morpholino-6-(7-(pyridin-3-ylamino)-9H-xanthen-4-yl)pyridin-2(1H)-one], the IC50 fell in the range of 500 to 2000 nM.

For `O=C1CCN1c1cncc(CNc2ccc3c(c2)Cc2cccc(-c4cc(N5CCOCC5)cc(=O)[nH]4)c2O3)c1` [Example 2-2-70, 4-Morpholino-6-(7-(((5-(2-oxoazetidin-1-yl)pyridin-3-yl)methyl)amino)-9H-xanthen-4-yl)pyridin-2(1H)-one], the IC50 was in the range of 100 to 500 nM.

As for `CC(=O)Nc1ccc(CCN2CCC(Nc3ccc4c(c3)Cc3cccc(-c5cc(N6CCOCC6)cc(=O)[nH]5)c3O4)CC2)cc1` [Example 2-32, N-(4-(2-(4-((5-(4-morpholino-6-oxo-1,6-dihydropyridin-2-yl)-9H-xanthen-2-yl)amino)piperidin-1-yl)ethyl)phenyl)acetamide], the IC50 was 100 to 500 nM.

As for `O=c1cc(N2CCOCC2)cc(-c2cccc3c2Sc2ccc(NC4CCCN(C5CCCC5)C4)cc2S3)[nH]1` (centres unmarked) [Example 1-24-5, 6-(7-((1-Cyclopentylpiperidin-3-yl)amino)thianthren-1-yl)-4-morpholino pyridin-2(1H)-one], the IC50 fell in the range of 100 to 500 nM.

`CC(Nc1ccc2c(c1)Cc1cccc(-c3cc(N4CCOCC4)cc(=O)[nH]3)c1O2)c1cc(Cl)ncn1` (centres unmarked) [Example 2-14-59, 6-(7-((1-(6-Chloropyrimidin-4-yl)ethyl)amino)-9H-xanthen-4-yl)-4-morpholino pyridin-2(1H)-one]: the IC50 is 100 to 500 nM.

`COc1ccc(CCN2CCC(Nc3ccc4c(c3)Cc3cccc(-c5cc(N6CCOCC6)cc(=O)[nH]5)c3O4)CC2)cn1` [Example 2-28-38, 6-(7-((1-(2-(6-Methoxypyridin-3-yl)ethyl)piperidin-4-yl)amino)-9H-xanthen-4-yl)-4-morpholino pyridin-2(1H)-one]: the IC50 lay within 100 to 500 nM.

Take `O=c1cc(N2CCOCC2)cc(-c2cccc3c2Oc2ccc(NCc4ccsc4)cc2C3)[nH]1` [Example 2-14-35, 4-Morpholino-6-(7-((thiophen-3-ylmethyl)amino)-9H-xanthen-4-yl) pyridin-2(1H)-one]: the IC50 lay within 100 to 500 nM.

On to `O=c1cc(N2CCOCC2)cc(-c2cccc3c2Oc2ccc(NCc4ccnc(Cl)c4)cc2S3)[nH]1` [Example 4-8-14, 6-(8-(((2-Chloropyridin-4-yl)methyl)amino)phenoxathiin-4-yl)-4-morpholino pyridin-2(1H)-one], for which the IC50 lay within 100 to 500 nM.

Take `O=c1cc(N2CCOCC2)cc(-c2cccc3c2Oc2ccc(NC4CCN(CCc5ccncc5)CC4)cc2C3)[nH]1` [Example 2-30-7, 4-Morpholino-6-(7-((1-(2-(pyridin-4-yl)ethyl)piperidin-4-yl)amino)-9H-xanthen-4-yl)pyridin-2(1H)-one]: the IC50 was in the range of 100 to 500 nM.

For the compound `CN1CCC[C@H]1CNc1ccc2c(c1)Sc1cccc(-c3cc(N4CCOCC4)cc(=O)[nH]3)c1S2` [Example 1-3, (S)-6-(7-(((1-methylpyrrolidin-2-yl)methyl)amino)thianthren-1-yl)-4-morpholinopyridin-2(1H)-one], the IC50 lay within 100 to 500 nM.

On to `O=c1cc(N2CCOCC2)cc(-c2cccc3c2Sc2ccc(NC4CN(Cc5cccnc5)C4)cc2S3)[nH]1` [Example 1-24-21, 4-Morpholino-6-(7-((1-(pyridin-3-ylmethyl)azetidin-3-yl)amino)thianthren-1-yl)pyridin-2(1H)-one], for which the IC50 lay in the range of 100 to 500 nM.

Take `O=c1cc(N2CCOCC2)cc(-c2cccc3c2Sc2ccc(NCc4cncs4)cc2S3)[nH]1` [Example 1-12-54, 4-Morpholino-6-(7-((thiazol-5-ylmethyl)amino)thianthren-1-yl)pyridin-2 (1H)-one]: the IC50 fell in the range of 100 to 500 nM.

Take `CNCC(Nc1ccc2c(c1)Sc1cccc(-c3cc(N4CCOCC4)cc(=O)[nH]3)c1S2)c1cccc(C)n1` (single isomer, unassigned) [Example 1-19-4-1, 6-(7-((2-(Methylamino)-1-(6-methylpyridin-2-yl)ethyl)amino)thianthren-1-yl)-4-morpholinopyridin-2(1H)-one]: the IC50 lay in the range of 100 to 500 nM.

For the compound `O=c1cc(N2CCOCC2)cc(-c2cccc3c2Oc2ccc(NCc4ccncc4Cl)cc2C3)[nH]1` [Example 2-2-25, 6-(7-(((3-Chloropyridin-4-yl)methyl)amino)-9H-xanthen-4-yl)-4-morpholino pyridin-2 (1H)-one], the IC50 is 100 to 500 nM.

As to `O=c1cc(N2CCOCC2)cc(-c2cccc3c2Oc2ccc(NC4CCN(CCc5ccc(CO)cc5)CC4)cc2C3)[nH]1` [Example 2-30-17, 6-(7-((1-(4-(Hydroxymethyl)phenethyl)piperidin-4-yl)amino)-9H-xanthen-4-yl)-4-morpholino pyridin-2 (1H)-one], the IC50 was 100 to 500 nM.

Values taken from patent US9586951B2 (FUJIFILM Corporation, priority 2013, dated 2017).
